{"source": "patent US4885309A", "about": "“Therapeutic treatment of leukotriene-mediated dermal inflammation by topical administration of 3,4-dihydro-2H-1-benzopyran derivatives” (Hoffmann-La Roche Inc., priority 1986, dated 1989)", "key": {"[1]": {"system": "arachidonic acid-induced ear edema", "test": "Mouse ear edema test (in vivo), arachidonic acid-induced", "set-up": "species or system CD-1 male mice", "conditions": "for % Inhibition (± S.E.M.): eight mice", "description": "Dermatol. 80: 48 (1983), and Humes, Opas and Bonney, \"Arachidonic Acid Metabolites in Mouse Ear Edema\". Advances in Inflammation Research, 11: 57 (1986).\nCD-1 male mice weighing 15 to 25 g were employed, and they were designated as follows: (1) Control Group, in which no arachidonic acid or test compound were to be applied, (2) Arachidonic Acid-Treated Group, in which no test compound was to be applied, and (3) Treated Group, in which the test compound was to be applied first, followed by the application of arachidonic acid. The test compound was again racemic-6-acetyl-7-[5-(4-acetyl-3-hydroxy-2-propylphenoxy)pentyloxy]-3,4-dihydro-2H-1-benzopyran-2-carboxylic acid.\nIn the case of the Group (3) animals, the test compound, dissolved in acetone, was applied to the dorsal surface of the right ear of the mouse with a 25-microliter pipettor, with the dose of the test compound being varied as shown in Tables 3 and 4. After 0.5 hour in some cases and 4 hours in others, the arachidonic acid was topically applied in the same manner as above to the pretreated ear areas. In each case of arachidonic acid application, an amount of 0.5 mg dissolved in 25 microliters of acetone was used. Application was made topically to the dorsal surface of the right ear with a 25-microliter pipettor. After one hour, the mice were sacrificed by carbon dioxide inhalation. A 6 mm-diameter standard biopsy punch was used to obtain a uniform tissue sample from the ear of each mouse so treated, and the tissue samples were weighed to the nearest 0.1 mg. The percent inhibition of ear edema formation was calculated as follows: [formula]"}, "[2]": {"system": "leukotriene-induced vascular permeability", "test": "Inhibition of leukotriene (LTD4)-induced vascular permeability by topical test compound, rats", "format": "in vivo, male rats (Sprague-Dawley strain)", "conditions": "for % Inhibition (± S.E.M.): rat, topical 4 hours prior to LTD4 injection", "method": "(§1) The test compound was administered to the same number of animals as before by applying one drop (50 microliters) directly on the skin surface of a 10% by weight solution of the test compound in dimethylsulfoxide (DMSO). This amounted to 5 mg of test compound per site of application. […] Evans blue dye (0.5% in saline) was then injected intravenously into each animal, using the same procedure describd for Part (a), above. After thirty minutes the animals were sacrificed, the dorsal skins were removed, and the extent of dye migration was measured as above. The effectiveness of the test compound was calculated as the Percent (%) Inhibition of Leukotriene-Induced Permeability, as follows: [formula] where MWS=mean wheal size."}, "[3]": {"system": "leukotriene-induced vascular permeability", "test": "Inhibition of leukotriene (LTD4)-induced vascular permeability by topical test compound, guinea pigs", "format": "in vivo, male guinea pigs (Hartley strain)", "conditions": "for % Inhibition (± S.E.M.): guinea pig, topical 4 hours prior to LTD4 injection", "method": "as §1"}}}
{"compound": "CCCc1c(OCCCCCOc2cc3c(cc2C(C)=O)CCC(C(=O)O)O3)ccc(C(C)=O)c1O", "note": "(racemic) [test compound, 6-acetyl-7-[5-(4-acetyl-3-hydroxy-2-propylphenoxy)pentyloxy]-3,4-dihydro-2H-1-benzopyran-2-carboxylic acid]", "values": [{"measurement": "% Inhibition (± S.E.M.)", "setting": "[1]; 0.5 Hour Pretreatment, 0.1 mg applied topically in 25 μl acetone", "result": "19 ± 10", "unit": "%"}, {"measurement": "% Inhibition (± S.E.M.)", "setting": "[1]; 0.5 Hour Pretreatment, 0.2 mg applied topically in 25 μl acetone", "result": "21 ± 12", "unit": "%"}, {"measurement": "% Inhibition (± S.E.M.)", "setting": "[1]; 0.5 Hour Pretreatment, 0.5 mg applied topically in 25 μl acetone", "result": "42 ± 12", "unit": "%"}, {"measurement": "% Inhibition (± S.E.M.)", "setting": "[1]; 0.5 Hour Pretreatment, 1.0 mg applied topically in 25 μl acetone", "result": "63 ± 4", "unit": "%"}, {"measurement": "% Inhibition (± S.E.M.)", "setting": "[1]; 0.5 Hour Pretreatment, 2.0 mg applied topically in 25 μl acetone", "result": "65 ± 1", "unit": "%"}, {"measurement": "% Inhibition (± S.E.M.)", "setting": "[1]; 4 Hour Pretreatment, 0.1 mg applied topically in 25 μl acetone", "result": "26 ± 9", "unit": "%"}, {"measurement": "% Inhibition (± S.E.M.)", "setting": "[1]; 4 Hour Pretreatment, 0.2 mg applied topically in 25 μl acetone", "result": "31 ± 12", "unit": "%"}, {"measurement": "% Inhibition (± S.E.M.)", "setting": "[1]; 4 Hour Pretreatment, 0.5 mg applied topically in 25 μl acetone", "result": "28 ± 9", "unit": "%"}, {"measurement": "% Inhibition (± S.E.M.)", "setting": "[1]; 4 Hour Pretreatment, 1.0 mg applied topically in 25 μl acetone", "result": "37 ± 7", "unit": "%"}, {"measurement": "% Inhibition (± S.E.M.)", "setting": "[1]; 4 Hour Pretreatment, 2.0 mg applied topically in 25 μl acetone", "result": "68 ± 7", "unit": "%"}, {"measurement": "inhibition of edema", "setting": "[1]; amounts up to 2 mg, both 0.5 and 4 hours prior to arachidonic acid application", "result": "significant inhibition of edema"}, {"measurement": "% Inhibition (± S.E.M.)", "setting": "[2]; 2.5% in DMSO", "result": "28 ± 4", "unit": "%"}, {"measurement": "% Inhibition (± S.E.M.)", "setting": "[2]; 5.0% in DMSO", "result": "50 ± 6", "unit": "%"}, {"measurement": "% Inhibition (± S.E.M.)", "setting": "[2]; 10.0% in DMSO", "result": "59 ± 6", "unit": "%"}, {"measurement": "% Inhibition (± S.E.M.)", "setting": "[2]; 25.0% in DMSO", "result": "67 ± 5", "unit": "%"}, {"measurement": "time of peak activity (inhibition of leukotriene-induced vascular permeability)", "setting": "[2]; rats, relative to guinea pigs (2-4 hours), 5 mg per site (10% in DMSO) topical, LTD4 0.4 microgram per site", "result": "somewhat later"}, {"measurement": "inhibition of leukotriene-induced vascular permeability", "setting": "[2]; rats, 5 mg per site (10% in DMSO) topical, time variation", "result": "inhibited leukotriene-induced vascular permeability"}, {"measurement": "inhibition of leukotriene-induced vascular permeability increase, variation of concentration", "setting": "[2]; rats, topical 4 hours prior to leukotriene injection", "result": "inhibited the leukotriene-induced vascular permeability increase in a dose-related manner"}, {"measurement": "% Inhibition (± S.E.M.)", "setting": "[3]; 5.0% in DMSO", "result": "11 ± 3", "unit": "%"}, {"measurement": "% Inhibition (± S.E.M.)", "setting": "[3]; 10.0% in DMSO", "result": "33 ± 3", "unit": "%"}, {"measurement": "% Inhibition (± S.E.M.)", "setting": "[3]; 15.0% in DMSO", "result": "43 ± 4", "unit": "%"}, {"measurement": "% Inhibition (± S.E.M.)", "setting": "[3]; 25.0% in DMSO", "result": "49 ± 4", "unit": "%"}, {"measurement": "inhibition of leukotriene-induced vascular permeability", "setting": "[3]; guinea pigs, 5 mg per site (10% in DMSO) topical, time variation", "result": "inhibited leukotriene-induced vascular permeability"}, {"measurement": "time of peak activity (inhibition of leukotriene-induced vascular permeability)", "setting": "[3]; guinea pigs, 5 mg per site (10% in DMSO) topical, LTD4 0.4 microgram per site", "result": "2 to 4", "unit": "h"}, {"measurement": "inhibition of leukotriene-induced vascular permeability increase, variation of concentration", "setting": "[3]; guinea pigs, topical 4 hours prior to leukotriene injection", "result": "inhibited the leukotriene-induced vascular permeability increase in a dose-related manner"}]}
